Publication PMC6265310, “Purification, Characterization and in vitro Evaluation of Polymyxin A From Paenibacillus dendritiformis: An Underexplored Member of the Polymyxin Family” (Frontiers in Microbiology, 2018)
Values after ≈ are worked out from the molar mass of the structure shown. Read-outs that look alike come from different tables or passages of the source. Where a SMILES comes first, the peptide text is derived from it. Bridges are numbered along the chain shown (N, C = ends). [ ]: non-standard residue; d: D form. The star is where a group is joined. X1 = CC[C@H](C)CCCCC(=O)*; dDab = NCC[C@@H](N)C(=O)O; Dab = NCC[C@H](N)C(=O)O

How the values were obtained:
[1] = system: human embryonic kidney cell line (HEK293 ATCC CRL-1573); type: cell-based
Experimental: (§1) 3-(4,5-dimethylthiazol-2-yl)-2,5-diphenyltetrazolium bromide (MTT) assay was employed to examine the cytotoxicity against human leukemic monocyte cell line (THP-1 ATCC TIB-202) and human embryonic kidney cell line (HEK293 ATCC CRL-1573) as explained by [Kaur et al. (2017)]. Toxicity of both compounds was compared with polymyxin B and colistin at concentrations ranging from 62.5 to1000 μg/ml.

[2] = system: human leukemic monocyte cell line (THP-1 ATCC TIB-202); type: cell-based
Experimental: as §1

[3] = system: Acinetobacter baumannii ATCC 19606; settings: Acinetobacter baumannii ATCC 19606; Ca-MHB, 37°C, 20–24 h
[4] = system: Escherichia coli ATCC 25922; settings: Escherichia coli ATCC 25922
[5] = system: Escherichia coli ATCC 35218; settings: Escherichia coli ATCC 35218
[6] = system: Klebsiella pneumoniae ATCC BAA1706; settings: Klebsiella pneumoniae ATCC BAA1706
[7] = system: Klebsiella pneumoniae ATCC 700603; settings: Klebsiella pneumoniae ATCC 700603
[8] = system: Klebsiella pneumoniae ATCC 29665; settings: Klebsiella pneumoniae ATCC 29665
[9] = system: Klebsiella pneumoniae ATCC- BAA 2146; settings: Klebsiella pneumoniae ATCC- BAA 2146
[10] = system: Pseudomonas aeruginosa ATCC 27853; settings: Pseudomonas aeruginosa ATCC 27853
[11] = system: Vibrio parahaemolyticus ATCC17802
[12] = system: Vibrio cholerae MTCC 3906
[13] = system: Bacillus subtilis ATCC 6633; settings: Bacillus subtilis ATCC 6633
[14] = system: Staphylococcus aureus ATCC 25923; settings: Staphylococcus aureus ATCC 25923
[15] = system: Enterococcus faecalis ATCC 51299; settings: Enterococcus faecalis ATCC 51299
P. aeruginosa ATCC 27853 = test: Time-kill kinetics; type: cell-based; settings: P. aeruginosa ATCC 27853, 2xMIC
[16] = system: LPS (E. coli strain 055:B5 origin); type: binding; settings: read-out: Dissociation constant (Kd)
[17] = THP-1 cells, MTT, 62.5 to 1000 μg/ml

In the case of CC[C@H](C)CCCCC(=O)N[C@@H](CCN)C(=O)N[C@H](C(=O)N[C@H](CCN)C(=O)N[C@H]1CCNC(=O)[C@H]([C@@H](C)O)NC(=O)[C@H](CCN)NC(=O)[C@H](CCN)NC(=O)[C@H]([C@@H](C)O)NC(=O)[C@@H](CC(C)C)NC(=O)[C@H](CCN)NC1=O)[C@@H](C)O [P2, polymyxin A1] (X1-[Dab]T[dDab][Dab][Dab][dL]T[Dab][Dab]T; lactam 4-C), the “toxicity ranking against HEK cells” value [1] is reported as “highest toxicity among four compounds”, the IC50 [2] is reported as 500 µg/mL (≈ 432 µM) and the MIC [3] is reported as 1 µg/mL (≈ 0.864 µM). The MIC [4] was 1 µg/mL (≈ 0.864 µM), the MIC [5] was 0.5 µg/mL (≈ 0.432 µM) and the MIC [6] was 1 µg/mL (≈ 0.864 µM). The MIC [7] was 1 µg/mL (≈ 0.864 µM), the MIC [8] was 1 µg/mL (≈ 0.864 µM) and the MIC [9] was 1 µg/mL (≈ 0.864 µM). It also gave an MIC [10] of 1 µg/mL (≈ 0.864 µM), an MIC [11] of 1 µg/mL (≈ 0.864 µM) and an MIC [12] of 8 µg/mL (≈ 6.91 µM). It also gave an MIC [13] of 8 µg/mL (≈ 6.91 µM), an MIC [14] of over 16 µg/mL and an MIC [15] of over 16 µg/mL. It also gave an MIC (K. Pneumoniae GMCH 16; GMCH 16) of 0.5 µg/mL (≈ 0.432 µM), an MIC (K. Pneumoniae GMCH10; GMCH10) of 1 µg/mL (≈ 0.864 µM) and an MIC (K. Pneumoniae 1573; 1573) of 0.5 µg/mL (≈ 0.432 µM). The MIC (K. Pneumoniae GMCH13; GMCH13) was 0.5 µg/mL (≈ 0.432 µM), the MIC (K. Pneumoniae GMCH12; GMCH12) was 1 µg/mL (≈ 0.864 µM) and the MIC (K. Pneumoniae 1428; 1428) was 2 µg/mL (≈ 1.73 µM). For the same molecule, the MIC (K. Pneumoniae GMCH04; GMCH04) was 0.5 µg/mL (≈ 0.432 µM), the MIC (K. Pneumoniae GMCH11; GMCH11) was 1 µg/mL (≈ 0.864 µM) and the MIC (K. Pneumoniae 827; 827) was 1 µg/mL (≈ 0.864 µM). It also gave an MIC (K. Pneumoniae B8; B8) of 1 µg/mL (≈ 0.864 µM), an MIC (P. aeruginosa GMCH06; GMCH06) of 1 µg/mL (≈ 0.864 µM) and an MIC (P. aeruginosa PA1; PA1) of 2 µg/mL (≈ 1.73 µM). For the same molecule, the MIC (P. aeruginosa PA2; PA2) was 2 µg/mL (≈ 1.73 µM), the MIC (P. aeruginosa PA3; PA3) was 2 µg/mL (≈ 1.73 µM) and the MIC (P. aeruginosa PA4; PA4) was 1 µg/mL (≈ 0.864 µM). The MIC (P. aeruginosa PA5; PA5) was 2 µg/mL (≈ 1.73 µM), the MIC (P. aeruginosa PA6; PA6) was 2 µg/mL (≈ 1.73 µM) and the MIC (E. coli 7534; 7534) was 0.5 µg/mL (≈ 0.432 µM). The MIC (E. coli 9062; 9062) was 1 µg/mL (≈ 0.864 µM), the MIC (E. coli 7210; 7210) was 1 µg/mL (≈ 0.864 µM) and the MIC (E. coli 14363; 14363) was 0.5 µg/mL (≈ 0.432 µM). The MIC (E. coli 7932; 7932) was 1 µg/mL (≈ 0.864 µM), the MIC (E. coli 3185; 3185) was 0.5 µg/mL (≈ 0.432 µM) and the MIC (E. coli 14504; 14504) was 0.5 µg/mL (≈ 0.432 µM). For the same molecule, the MIC (E. coli 13425; 13425) was 1 µg/mL (≈ 0.864 µM), the MIC (E. coli 14084; 14084) was 0.5 µg/mL (≈ 0.432 µM) and the MIC (A. baumannii GMCH 14; GMCH 14) was 1 µg/mL (≈ 0.864 µM). The MIC (A. baumannii GMCH18; GMCH18) was 0.5 µg/mL (≈ 0.432 µM), the MIC (A. baumannii GMCH05; GMCH05) was 1 µg/mL (≈ 0.864 µM) and the MIC (A. baumannii AB1; AB1) was 1 µg/mL (≈ 0.864 µM). It also gave an MIC (A. baumannii AB2; AB2) of 1 µg/mL (≈ 0.864 µM).

For polymyxin B [PB, reference compound], the time to kill (P. aeruginosa ATCC 27853) was 2 h, the Kd [16] was 3.39 µM and the IC50 [2, 17] was 125 µg/mL. It also gave an MIC [3] of 1 µg/mL, an MIC [4] of 1 µg/mL and an MIC [5] of 0.5 µg/mL. It also gave an MIC [6] of 1 µg/mL, an MIC [7] of 1 µg/mL and an MIC [8] of 1 µg/mL. The MIC [9] was 1 µg/mL, the MIC [10] was 1 µg/mL and the MIC [11] was 1 µg/mL. The MIC [12] was 8 µg/mL, the MIC [13] was 4 µg/mL and the MIC [14] was 16 µg/mL. The MIC [15] was over 16 µg/mL, the MIC (K. Pneumoniae GMCH 16) was 0.5 µg/mL and the MIC (K. Pneumoniae GMCH10) was 1 µg/mL. For the same molecule, the MIC (K. Pneumoniae 1573) was 1 µg/mL, the MIC (K. Pneumoniae GMCH13) was 1 µg/mL and the MIC (K. Pneumoniae GMCH12) was 1 µg/mL. It also gave an MIC (K. Pneumoniae 1428) of 2 µg/mL, an MIC (K. Pneumoniae GMCH04) of 0.5 µg/mL and an MIC (K. Pneumoniae GMCH11) of 1 µg/mL. It also gave an MIC (K. Pneumoniae 827) of 1 µg/mL, an MIC (K. Pneumoniae B8) of 1 µg/mL and an MIC (P. aeruginosa GMCH06) of 1 µg/mL. The MIC (P. aeruginosa PA1) was 2 µg/mL, the MIC (P. aeruginosa PA2) was 2 µg/mL and the MIC (P. aeruginosa PA3) was 2 µg/mL. The MIC (P. aeruginosa PA4) was 1 µg/mL, the MIC (P. aeruginosa PA5) was 2 µg/mL and the MIC (P. aeruginosa PA6) was 2 µg/mL. For the same molecule, the MIC (E. coli 7534) was 1 µg/mL, the MIC (E. coli 9062) was 1 µg/mL and the MIC (E. coli 7210) was 1 µg/mL. The MIC (E. coli 14363) was 0.5 µg/mL, the MIC (E. coli 7932) was 1 µg/mL and the MIC (E. coli 3185) was 0.5 µg/mL. The MIC (E. coli 14504) was 1 µg/mL, the MIC (E. coli 13425) was 1 µg/mL and the MIC (E. coli 14084) was 0.5 µg/mL. It also gave an MIC (A. baumannii GMCH 14) of 1 µg/mL, an MIC (A. baumannii GMCH18) of 1 µg/mL and an MIC (A. baumannii GMCH05) of 1 µg/mL. It also gave an MIC (A. baumannii AB1) of 1 µg/mL and an MIC (A. baumannii AB2) of 1 µg/mL.

“polymyxin E (colistin) [PE, reference compound]” was tested, and the Kd [16] was 7.04 µM, the IC50 ([1]; HEK293 cells, MTT, 62.5 to 1000 μg/ml) was “above 1000 μg/ml” and the IC50 [2, 17] was over 250 µg/mL. The MIC [3] was 1 µg/mL, the MIC [4] was 1 µg/mL and the MIC [5] was 0.5 µg/mL. For the same molecule, the MIC [6] was 0.5 µg/mL, the MIC [7] was 1 µg/mL and the MIC [8] was 0.5 µg/mL. The MIC [9] was 0.5 µg/mL, the MIC [10] was 1 µg/mL and the MIC [11] was 1 µg/mL. For the same molecule, the MIC [12] was over 16 µg/mL, the MIC [13] was 16 µg/mL and the MIC [14] was over 16 µg/mL. The MIC [15] was over 16 µg/mL, the MIC (K. Pneumoniae GMCH 16; K. Pneumoniae GMCH 16, MDR clinical isolate) was 1 µg/mL and the MIC (K. Pneumoniae GMCH10; K. Pneumoniae GMCH10, MDR clinical isolate) was 1 µg/mL. It also gave an MIC (K. Pneumoniae 1573; K. Pneumoniae 1573, MDR clinical isolate) of 1 µg/mL, an MIC (K. Pneumoniae GMCH13; K. Pneumoniae GMCH13, MDR clinical isolate) of 1 µg/mL and an MIC (K. Pneumoniae GMCH12; K. Pneumoniae GMCH12, MDR clinical isolate) of 1 µg/mL. It also gave an MIC (K. Pneumoniae 1428; K. Pneumoniae 1428, MDR clinical isolate) of 2 µg/mL, an MIC (K. Pneumoniae GMCH04; K. Pneumoniae GMCH04, MDR clinical isolate) of 0.5 µg/mL and an MIC (K. Pneumoniae GMCH11; K. Pneumoniae GMCH11, MDR clinical isolate) of 0.5 µg/mL. It also gave an MIC (K. Pneumoniae 827; K. Pneumoniae 827, MDR clinical isolate) of 1 µg/mL, an MIC (K. Pneumoniae B8; K. Pneumoniae B8, MDR clinical isolate) of 1 µg/mL and an MIC (P. aeruginosa GMCH06; P. aeruginosa GMCH06, MDR clinical isolate) of 1 µg/mL. For the same molecule, the MIC (P. aeruginosa PA1; P. aeruginosa PA1, MDR clinical isolate) was 2 µg/mL, the MIC (P. aeruginosa PA2; P. aeruginosa PA2, MDR clinical isolate) was 2 µg/mL and the MIC (P. aeruginosa PA3; P. aeruginosa PA3, MDR clinical isolate) was 2 µg/mL. The MIC (P. aeruginosa PA4; P. aeruginosa PA4, MDR clinical isolate) was 1 µg/mL, the MIC (P. aeruginosa PA5; P. aeruginosa PA5, MDR clinical isolate) was 2 µg/mL and the MIC (P. aeruginosa PA6; P. aeruginosa PA6, MDR clinical isolate) was 2 µg/mL. The MIC (E. coli 7534; E. coli 7534, MDR clinical isolate) was 0.5 µg/mL, the MIC (E. coli 9062; E. coli 9062, MDR clinical isolate) was 1 µg/mL and the MIC (E. coli 7210; E. coli 7210, MDR clinical isolate) was 1 µg/mL. For the same molecule, the MIC (E. coli 14363; E. coli 14363, MDR clinical isolate) was 0.5 µg/mL, the MIC (E. coli 7932; E. coli 7932, MDR clinical isolate) was 1 µg/mL and the MIC (E. coli 3185; E. coli 3185, MDR clinical isolate) was 0.5 µg/mL. It also gave an MIC (E. coli 14504; E. coli 14504, MDR clinical isolate) of 1 µg/mL, an MIC (E. coli 13425; E. coli 13425, MDR clinical isolate) of 1 µg/mL and an MIC (E. coli 14084; E. coli 14084, MDR clinical isolate) of 0.5 µg/mL. The MIC (A. baumannii GMCH 14; A. baumannii GMCH 14, MDR clinical isolate) was 1 µg/mL, the MIC (A. baumannii GMCH18; A. baumannii GMCH18, MDR clinical isolate) was 1 µg/mL and the MIC (A. baumannii GMCH05; A. baumannii GMCH05, MDR clinical isolate) was 1 µg/mL. The MIC (A. baumannii AB1; A. baumannii AB1, MDR clinical isolate) was 1 µg/mL and the MIC (A. baumannii AB2; A. baumannii AB2, MDR clinical isolate) was 1 µg/mL.
